Columns and labels:
DGKζ = DGKζ (Homo sapiens (Human), UniProt Q13574); experiment: Biochemical DGK IC50 assay, DGKζ ADP-Glo assay; settings: 0.5 nM enzyme, 140 μM ATP, 80 μM DAG; read-out: DGKζ ADP-Glo assay IC50
How it was run: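 ADP formation measured by ADP-Glo luminescence, with test compounds at final 1.55–10000 nM or 23.3–150000 nM. Enzyme: purified full-length human DGKζ from Sf9 insect cells; substrate: DAG/PS micelles in 25 mM HEPES pH 7.0, 0.5 mM EDTA, octyl glucoside.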

DGKα = DGKα (Homo sapiens (Human), UniProt P23743); experiment: Biochemical DGK IC50 assay, DGKα ADP-Glo assay; settings: 7.5 nM enzyme, 140 μM ATP, 80 μM DAG
How it was run: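 Compounds at final 1.55˜10000 nM or 23.3˜150000 nM were tested against full-length DGKα. Substrate was lipid micelles of DAG and PS resuspended in 25 mM HEPES pH 7.0 with 0.5 mM EDTA and 160 mM octyl β-D-glucopyranoside. ADP formed was detected by ADP-Glo.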

Chain of DGKα (P23743 whole entry): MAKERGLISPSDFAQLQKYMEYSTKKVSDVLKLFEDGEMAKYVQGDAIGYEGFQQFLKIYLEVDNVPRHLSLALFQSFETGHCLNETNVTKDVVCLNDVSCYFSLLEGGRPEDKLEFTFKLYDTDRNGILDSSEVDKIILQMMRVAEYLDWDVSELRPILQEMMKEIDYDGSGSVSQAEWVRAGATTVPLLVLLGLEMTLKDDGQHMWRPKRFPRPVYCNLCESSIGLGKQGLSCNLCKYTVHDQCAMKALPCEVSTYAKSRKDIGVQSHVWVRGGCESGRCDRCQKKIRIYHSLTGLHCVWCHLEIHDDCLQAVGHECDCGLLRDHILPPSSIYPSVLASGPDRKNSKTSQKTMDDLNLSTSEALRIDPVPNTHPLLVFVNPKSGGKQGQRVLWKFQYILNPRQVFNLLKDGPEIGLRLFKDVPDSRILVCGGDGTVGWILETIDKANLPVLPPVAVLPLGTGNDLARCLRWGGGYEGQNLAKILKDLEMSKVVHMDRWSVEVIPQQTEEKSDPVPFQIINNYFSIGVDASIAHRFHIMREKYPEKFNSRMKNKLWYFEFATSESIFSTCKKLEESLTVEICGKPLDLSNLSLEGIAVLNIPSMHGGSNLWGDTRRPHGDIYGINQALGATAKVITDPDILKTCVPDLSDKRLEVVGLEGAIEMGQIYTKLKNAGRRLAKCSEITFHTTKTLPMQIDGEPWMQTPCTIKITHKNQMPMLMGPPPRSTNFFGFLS
Chain of DGKζ (Q13574 other isoform, or with tags, fused parts or gaps): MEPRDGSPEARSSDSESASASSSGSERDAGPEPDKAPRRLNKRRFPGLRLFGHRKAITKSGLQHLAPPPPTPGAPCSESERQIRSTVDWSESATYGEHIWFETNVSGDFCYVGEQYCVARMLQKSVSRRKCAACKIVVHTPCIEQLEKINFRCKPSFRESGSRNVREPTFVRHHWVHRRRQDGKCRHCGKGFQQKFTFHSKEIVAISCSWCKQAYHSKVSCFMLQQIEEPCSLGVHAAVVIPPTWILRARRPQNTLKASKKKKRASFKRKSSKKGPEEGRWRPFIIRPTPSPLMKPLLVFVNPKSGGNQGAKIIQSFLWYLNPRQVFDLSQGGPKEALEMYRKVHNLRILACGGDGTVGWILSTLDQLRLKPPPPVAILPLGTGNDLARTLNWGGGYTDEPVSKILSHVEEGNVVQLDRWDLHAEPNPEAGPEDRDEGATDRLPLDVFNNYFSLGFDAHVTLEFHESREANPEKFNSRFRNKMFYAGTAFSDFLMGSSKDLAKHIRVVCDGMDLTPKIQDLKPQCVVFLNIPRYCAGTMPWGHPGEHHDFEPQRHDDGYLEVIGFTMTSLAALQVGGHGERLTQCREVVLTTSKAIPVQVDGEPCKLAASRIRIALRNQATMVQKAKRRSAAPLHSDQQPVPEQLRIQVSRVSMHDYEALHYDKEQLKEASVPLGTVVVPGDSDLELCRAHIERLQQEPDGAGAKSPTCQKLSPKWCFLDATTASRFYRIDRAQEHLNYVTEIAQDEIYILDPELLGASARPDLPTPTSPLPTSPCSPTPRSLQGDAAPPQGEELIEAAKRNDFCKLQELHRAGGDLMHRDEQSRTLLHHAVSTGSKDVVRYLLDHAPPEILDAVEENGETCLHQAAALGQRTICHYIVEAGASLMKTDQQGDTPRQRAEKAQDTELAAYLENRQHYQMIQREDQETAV

Row | SMILES | IC50 (DGKζ) [µM] | IC50 (DGKα) [µM]
1 | Cc1cnc2cc([C@H](C)N3C[C@H](C)N(c4cc(=O)n(C)c5cn(CC#N)nc45)C[C@H]3C)ccc2n1 (single isomer, unassigned) [Compound A269b, 2-(7-((2S,5R)-2,5-dimethyl-4-((S)-1-(2-methylquinoxalin-6-yl)ethyl)piperazin-1-yl)-4-methyl-5-oxo-4,5-dihydro-2H-pyrazolo[4,3-b]pyridin-2-yl)acetonitrile, or 2-(7-((2S,5R)-2,5-dimethyl-4-((R)-1-(2-methylquinoxalin-6-yl)ethyl)piperazin-1-yl)-4-methyl-5-oxo-4,5-dihydro-2H-pyrazolo[4,3-b]pyridin-2-yl)acetonitrile] | 6.85 | > 10
2 | CC[C@H]1CN(C(C)c2ccc3ccccc3n2)[C@H](CC)CN1c1cc(=O)n(C)c2cn(CC#N)nc12 (stereo partly shown) [Compound A57] | 0.05 | 0.114
3 | CC(c1ccc2nccnc2c1)N1C[C@H](C)N(c2cc(=O)n(C)c3cn(C(C)C)nc23)C[C@H]1C (stereo partly shown) [Compound A18] | 3.7 | 5.7
4 | CC(c1ccc2ncc(CO)nc2c1)N1C[C@H](C)N(c2cc(=O)n(C)c3cn(CC#N)nc23)C[C@H]1C (stereo partly drawn) [Compound A309, 2-(7-((2S,5R)-4-(1-(3-(hydroxymethyl)quinoxalin-6-yl)ethyl)-2,5-dimethylpiperazin-1-yl)-4-methyl-5-oxo-4,5-dihydro-2H-pyrazolo[4,3-b]pyridin-2-yl)acetonitrile] | 0.88 | 108
5 | CC[C@H]1CN(C(C)c2ccc(F)nc2)[C@H](CC)CN1c1cc(=O)n(C)c2cn(CC#N)nc12 (single isomer, unassigned) [Compound A353a] | 0.19 | 0.032
6 | CC[C@H]1CN(C(C)c2ncc(OC(F)(F)F)cc2F)[C@H](CC)CN1c1cc(=O)n(C)c2cn(CC#N)nc12 (single isomer, unassigned) [Compound A362b] | 0.3 | 0.033
7 | CC(c1ccc2nccnc2c1)N1C[C@H](C)N(c2cc(=O)n(C)c3cn(CC4CC4)nc23)C[C@H]1C (stereo partly shown) [Compound A10] | 18 | 110
8 | CC[C@H]1CN(C(C)c2ccc(C(F)(F)F)cc2F)[C@H](CC)CN1c1cc(=O)n(C)c2c[nH]nc12 (single isomer, unassigned) [Compound A231b] | > 10 | 0.303
9 | CC[C@H]1CN(C(C)c2ccc(C3CC3)nc2)[C@H](CC)CN1c1cc(=O)n(C)c2cn(CC#N)nc12 (stereo partly drawn) [Compound A350, 2-(7-((2S,5R)-4-(1-(6-cyclopropylpyridin-3-yl)ethyl)-2,5-diethylpiperazin-1-yl)-4-methyl-5-oxo-4,5-dihydro-2H-pyrazolo[4,3-b]pyridin-2-yl)acetonitrile] | 0.249 | 0.945
10 | CC[C@H]1CN(C(C)c2ccc(C3CC3)cc2OC)[C@H](CC)CN1c1cc(=O)n(C)c2cn(CC#N)nc12 (single isomer, unassigned) [Compound A199a] | 2.46 | > 10
11 | CC[C@@H]1CN(c2c(C#N)c(=O)[nH]c3cn(CC#N)nc23)[C@@H](C)CN1C(C)c1ccc2nccnc2c1 (single isomer, unassigned) [Compound A200b] | 5.38 | > 10
12 | Cc1nc2ccc(C(C)N3C[C@H](C)N(c4cc(=O)n(C)c5cn(CC#N)nc45)C[C@H]3C)cc2nc1C (stereo partly drawn) [Compound A294, 2-(7-((2S,5R)-4-(1-(2,3-dimethylquinoxalin-6-yl)ethyl)-2,5-dimethylpiperazin-1-yl)-4-methyl-5-oxo-4,5-dihydro-2H-pyrazolo[4,3-b]pyridin-2-yl)acetonitrile] | 3.86 | 69.6
13 | CC[C@H]1CN(C(C)c2ccc(C)nc2)[C@H](CC)CN1c1cc(=O)n(C)c2cn(CC#N)nc12 (single isomer, unassigned) [Compound A349b] | 4.24 | 1.58
14 | CC#CCn1cc2c(n1)c(N1C[C@@H](CC)N(C(C)c3ccc4c(c3)OC(F)(F)O4)C[C@@H]1C)cc(=O)n2C (single isomer, unassigned) [Compound A392b] | > 10 | 1.07
15 | C=C(C)n1cc2c(n1)c(N1C[C@@H](C)N(C(C)c3ccc4nccnc4c3)C[C@@H]1C)cc(=O)n2C (stereo partly drawn) [Compound A24, 7-((2S,5R)-2,5-dimethyl-4-(1-(quinoxalin-6-yl)ethyl)piperazin-1-yl)-4-methyl-2-(prop-1-en-2-yl)-2,4-dihydro-5H-pyrazolo[4,3-b]pyridin-5-one] | 4.3 | 0.15
16 | CC(c1ccc2ncc(Cl)nc2c1)N1C[C@H](C)N(c2cc(=O)n(C)c3cn(CC#N)nc23)C[C@H]1C (stereo partly drawn) [Compound A280, 2-(7-((2S,5R)-4-(1-(3-chloroquinoxalin-6-yl)ethyl)-2,5-dimethylpiperazin-1-yl)-4-methyl-5-oxo-4,5-dihydro-2H-pyrazolo[4,3-b]pyridin-2-yl)acetonitrile] | 0.034 | 26
17 | C=CCCn1cc2c(n1)c(N1C[C@@H](C)N(C(C)c3ccc4nccnc4c3)C[C@@H]1C)cc(=O)n2C (single isomer, unassigned) [Compound A300, 2-(but-3-en-1-yl)-7-((2S,5R)-2,5-dimethyl-4-((S)-1-(quinoxalin-6-yl)ethyl)piperazin-1-yl)-4-methyl-2,4-dihydro-5H-pyrazolo[4,3-b]pyridin-5-one, or 2-(but-3-en-1-yl)-7-((2S,5R)-2,5-dimethyl-4-((R)-1-(quinoxalin-6-yl)ethyl)piperazin-1-yl)-4-methyl-2,4-dihydro-5H-pyrazolo[4,3-b]pyridin-5-one] | 0.524 | 54
18 | CC[C@H]1CN(C(C)c2ccc(C(F)(F)F)cc2F)[C@H](CC)CN1c1cc(=O)n(C)c2cn(CC#N)nc12 (stereo partly drawn) [Compound A73, 2-(7-((2S,5R)-2,5-diethyl-4-(1-(2-fluoro-4-(trifluoromethyl)phenyl)ethyl)piperazin-1-yl)-4-methyl-5-oxo-4,5-dihydro-2H-pyrazolo[4,3-b]pyridin-2-yl)acetonitrile] | 0.63 | 0.63
19 | CC[C@H]1CN(C(C)c2ccc(C)cc2C(F)(F)F)[C@H](CC)CN1c1cc(=O)n(C)c2cn(CC#N)nc12 (single isomer, unassigned) [Compound A115b] | 0.378 | 105
20 | CC[C@H]1CN(C(C)c2ccc3nccnc3c2)[C@H](CC)CN1c1cc(=O)n(CC(F)F)c2cn(CC#N)nc12 (single isomer, unassigned) [Compound A139b] | 5.74 | > 10
21 | COCc1cc(F)ccc1C(C)N1C[C@H](C)N(c2cc(=O)n(C)c3cn(CC#N)nc23)C[C@H]1C (stereo partly drawn) [Compound A29, 2-(7-((2S,5R)-4-(1-(4-fluoro-2-(methoxymethyl)phenyl)ethyl)-2,5-dimethylpiperazin-1-yl)-4-methyl-5-oxo-4,5-dihydro-2H-pyrazolo[4,3-b]pyridin-2-yl)acetonitrile] | 0.11 | 23
22 | CC[C@H]1CN(C(C)c2ccnn2CC(F)F)[C@H](CC)CN1c1cc(=O)n(C)c2c[nH]nc12 (stereo partly drawn) [Compound A228, 7-((2S,5R)-4-(1-(1-(2,2-difluoroethyl)-1H-pyrazol-5-yl)ethyl)-2,5-diethylpiperazin-1-yl)-4-methyl-2,4-dihydro-5H-pyrazolo[4,3-b]pyridin-5-one] | 9.2 | > 10
23 | [2H]C([2H])([2H])c1cnc2ccc(C(C)N3C[C@H](C)N(c4cc(=O)n(C)c5cn(CC#N)nc45)C[C@H]3C)cc2n1 (stereo partly drawn) [Compound A313, 2-(7-((2S,5R)-2,5-dimethyl-4-(1-(3-(methyl-d3)quinoxalin-6-yl)ethyl)piperazin-1-yl)-4-methyl-5-oxo-4,5-dihydro-2H-pyrazolo[4,3-b]pyridin-2-yl)acetonitrile] | 0.041 | 48
24 | CC[C@@H]1CN(c2cc(=O)n(C)c3cn(CC#N)nc23)[C@@H](C)CN1C(C)c1ccc2nccnc2c1 (single isomer, unassigned) [Compound A97b] | 1.61 | 5.12
25 | CC(c1ccc2ncc(O)nc2c1)N1C[C@H](C)N(c2cc(=O)n(C)c3cn(CC#N)nc23)C[C@H]1C (stereo partly drawn) [Compound A279, 2-(7-((2S,5R)-4-(1-(3-hydroxyquinoxalin-6-yl)ethyl)-2,5-dimethylpiperazin-1-yl)-4-methyl-5-oxo-4,5-dihydro-2H-pyrazolo[4,3-b]pyridin-2-yl)acetonitrile] | > 10 | > 10
26 | COc1c(N2C[C@@H](C)N([C@@H](C)c3ccc4nccnc4c3)C[C@@H]2C)c2nn(CC#N)cc2n(C)c1=O [Compound A274, 2-(7-((2S,5R)-2,5-dimethyl-4-((S)-1-(quinoxalin-6-yl)ethyl)piperazin-1-yl)-6-methoxy-4-methyl-5-oxo-4,5-dihydro-2H-pyrazolo[4,3-b]pyridin-2-yl)acetonitrile] | > 10 | > 10
27 | CC[C@H]1CN(C(C)c2ncc(C(F)(F)F)cc2F)[C@H](CC)CN1c1cc(=O)n(C)c2cn(CC#N)nc12 (single isomer, unassigned) [Compound A354a] | 3.13 | 0.996
28 | CC(c1ccc2ncc(C(F)F)nc2c1)N1C[C@H](C)N(c2cc(=O)n(C)c3cn(CC#N)nc23)C[C@H]1C (stereo partly drawn) [Compound A311, 2-(7-((2S,5R)-4-(1-(3-(difluoromethyl)quinoxalin-6-yl)ethyl)-2,5-dimethylpiperazin-1-yl)-4-methyl-5-oxo-4,5-dihydro-2H-pyrazolo[4,3-b]pyridin-2-yl)acetonitrile] | 0.041 | 6.63
29 | CC[C@H]1CN(C(C)c2ccc(CN3CCC(F)(F)CC3)nc2)[C@H](CC)CN1c1cc(=O)n(C)c2cn(CC#N)nc12 (single isomer, unassigned) [Compound A381b] | 2.33 | 2.09
